Reference: patent publication US10947289B2, “Glyco-modified atrial natriuretic peptide” (priority 2013, dated 2021)

Experiments:
Format in all cases: in vivo
[1] = system: cGMP concentration in plasma; test: cGMP concentration in plasma of rats after intravenous injection (Test Example 3); details: rat, 100 nmol/kg i.v.
Method: The duration time (the effect of persistently elevating cGMP in blood and the time for which a test substance was detectable in blood) of each modified peptide prepared in Example 2 in the blood of rats was examined by the following method:
Before the administration and 15, 30, 60, 90, 120, 180, and 240 minutes after the administration, blood was sampled (200 μL/sampling) over time from the jugular vein. The blood samples were immediately left on ice.
The collected blood samples were centrifuged at 5000 rpm at 4° C. for 5 minutes by use of a centrifuge (Sigma 4K15, rotor: Nr12130-H). The separated plasma samples were divided into two types (samples for PK measurement and for cGMP measurement) and stored at −80° C. until measurement.
The cGMP concentration in plasma was measured using Amersham cGMP Enzyme Immunoassay Biotrak™ (EIA) System (dual range) according to the protocol attached thereto.

[2] = Detection of test substance in rat plasma by LC-MS/MS (Test Example 3); details: 100 nmol/kg i.v.
Summary of the method: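 Reported as final detection time: LC-MS/MS measured test substance in rat plasma collected from the jugular vein at 15, 30, 60, 90, 120, 180 and 240 min post-dose. Sample prep used a labelled hANP internal standard, acidic solvent, and sequential 50K then 3K ultrafiltration, keeping the 3K retentate.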

[3] = system: cGMP level in blood; test: cGMP level in blood after subcutaneous administration to a monkey
[4] = Detection in blood after subcutaneous administration to a monkey

CC[C@H](C)[C@@H]1NC(=O)[C@H](CCCNC(=N)N)NC(=O)[C@H](CC(=O)O)NC(=O)[C@H](CCSC)NC(=O)[C@H](CCCNC(=N)N)NC(=O)CNC(=O)CNC(=O)[C@H](Cc2ccccc2)NC(=O)[C@@H](NC(=O)[C@H](CO)NC(=O)[C@H](CO)NC(=O)[C@H](CCCNC(=N)N)NC(=O)[C@H](CCCNC(=N)N)NC(=O)[C@H](CC(C)C)NC(=O)[C@@H](N)CO)CSSC[C@@H](C(=O)N[C@@H](CC(N)=O)C(=O)N[C@@H](CO)C(=O)N[C@@H](Cc2ccccc2)C(=O)N[C@@H](CCCNC(=N)N)C(=O)N[C@@H](Cc2ccc(O)cc2)C(=O)O)NC(=O)CNC(=O)[C@H](CC(C)C)NC(=O)CNC(=O)[C@H](CO)NC(=O)[C@H](CCC(N)=O)NC(=O)[C@H](C)NC(=O)CNC1=O [Native hANP, hANP(1-28)]
AUC60-240 ([1]; plasma cGMP): ≤ 0 pmol·h/mL
All values integrated AUC 0-240 ([1]; plasma cGMP, 0 to 240 minutes, Pre-value as baseline, points under baseline negative): 13.90 (pmol/ml)*h
All values integrated AUC 60-240 ([1]; plasma cGMP, 60 to 240 minutes, Pre-value as baseline, points under baseline negative): −33.86 (pmol/ml)*h
Pre-value and higher values integrated AUC 60-240 ([1]; plasma cGMP, 60 to 240 minutes, only points above baseline): 0.00 (pmol/ml)*h
Elevation of cGMP in plasma at 60 minutes or later [1]: disappeared completely
cGMP level 30 minutes after the administration [1]: a level close to that before the start of the administration
Maximum time of detection after administration ([2]; rat plasma, LC-MS/MS, time at which the test substance was finally detected): 0 h
Detection of test substance in plasma sample ([2]; rat, 15 minutes after the administration): no longer detected
Elevation of the cGMP level in blood after administration [3]: returns, 60 minutes after the administration, to the same level as that before the administration
Detection in blood after administration [4]: no longer detected in blood 30 minutes after the administration
